# From patent US7833795B2, “Assessment of cardiovascular risk using isoprostane biomarkers and COX-2 selective inhibitors” (The Trustees of the University of Pennsylvania, priority 2004, dated 2010)
# Key:
# Assay type in all cases: in vivo, rat
# [1] = tested on: Male Fisher 344 rats; assay: Liver enzyme activities, histopathology and other clinical parameters after CCl4; settings: CCl4 120 and 1200 mg/kg; 2, 7, 16 h
# Procedure: (§1) Animals and treatment protocol: Male Fisher 344 rats (260-280 g) obtained from Charles River Laboratories (Raleigh, N.C.) were used in all experiments. The animals were housed three to a cage. Autoclaved hardwood bedding was used in solid-bottom polycarbonate cages with filter tops. Animal rooms were maintained at 20-25° C. with 35-70% relative humidity with alternating 12-hour light and dark cycles. The rats had free access to deionized, reverse-osmosis-treated water and received autoclaved NIH 31 rodent chow (Zeigler Bros., Gardners, Pa.) ad libitum. For all experiments, rats were fasted overnight and then administered intraperitoneal injections of carbon tetrachloride in canola oil. Control rats received an equal volume of canola oil. Fasting continued throughout the experiment. […]
# Serum enzyme activities of lactic acid dehydrogenase (LDH), alanine aminotransferase (ALT), alkaline phosphatase (ALP), aspartate aminotransferase (AST), sorbitol dehydrogenase (SDH), 5′-nucleotidase (5′-NT), serum concentration of total bile acids (TBA), and liver histopathology were performed, as described (Kadiiska et al., 2000, Free Radic. Biol. Med. 28:838-845). In addition, other clinical parameters such as serum albumin, total protein, total iron, total iron binding capacity, nitrite/nitrate, and urinary creatinine were determined, using standard techniques known to those in the art.
# [2] = tested on: Male Fisher 344 rats; assay: Plasma MDA, Bioxytech LPO-586 colorimetric assay; settings: both CCl4 doses
# Procedure: as §1, with “experiment. Rats were anesthetized with Nembutal (0.1 ml/100 g body weight) and 5 ml blood was removed from the dorsal aorta proximal to its bifurcation into the common iliac arteries.” for “experiment.”
# Two colorimetric-based assays, using third derivative spectroscopy, were also used to measure MDA in plasma. […] One molecule of free MDA combines with 2 molecules of the chromogenic agent to produce a stable chromophore with a maximal absorbance at 586 nm. In both assays, the concentration of MDA was determined with 3rd derivative spectroscopy. […]
# [3] = tested on: Male Fisher 344 rats; assay: Urinary MDA by HPLC with spectrophotometry; settings: for MDA (by HPLC with spectrophotometry): urine
# Procedure: (§2) Animals and treatment protocol: Male Fisher 344 rats (260-280 g) obtained from Charles River Laboratories (Raleigh, N.C.) were used in all experiments. The animals were housed three to a cage. Autoclaved hardwood bedding was used in solid-bottom polycarbonate cages with filter tops. Animal rooms were maintained at 20-25° C. with 35-70% relative humidity with alternating 12-hour light and dark cycles. The rats had free access to deionized, reverse-osmosis-treated water and received autoclaved NIH 31 rodent chow (Zeigler Bros., Gardners, Pa.) ad libitum. For all experiments, rats were fasted overnight and then administered intraperitoneal injections of carbon tetrachloride in canola oil. Control rats received an equal volume of canola oil. Fasting continued throughout the experiment. Rats were anesthetized with Nembutal (0.1 ml/100 g body weight) and 5 ml blood was removed from the dorsal aorta proximal to its bifurcation into the common iliac arteries.
# Indomethacin pretreatment: The indomethacin regimen used has been previously shown to inhibit COX activity in rats by 90% (dose of 5 mg/kg s.c. 24 hours, 12 hours, and 2 hours prior to the injection of CCl4) (Jackson, 1989, J. Pharmacol. Exp. Ther. 250: 9-21). An additional booster dose was injected 8 hours after the last injection of CCl4 for the measurements performed 16 hours after treatment with CCl4.
# Meclofenamic acid pretreatment: Meclofenamic acid was injected at a dose of 5 mg/kg i.p. 12 h and 2 h prior to the injection of CCl4.
# (§3) Carbon tetrachloride (CCL4) treatment: Animals from each of the three dose groups (Control-canola oil, 120 mg/kg CCl4 i.p. and 1200 mg/kg CCl4 i.p.) were investigated at three time points (2, 7, and 16 hours after CCl4 injection). Indomethacin-pretreated rats were also investigated at the same three time points, and the meclofenamic acid-pretreated rats were investigated at one time point (7 hours). Each group consisted of five rats for each analysis, except the meclofenamic acid pretreatment group which consisted of six rats. Animal treatment, sample preparation, assessment of liver histology and serum enzyme activities are described elsewhere (Kadiiska et al., 2000, Free Radic. Biol. Med. 28: 838-845; Jackson, 1989, J. Pharmacol. Exp. Ther. 250: 9-21) and were carried out at NIEHS, Research Triangle Park, N.C.
# Urine sample preparation: The day prior to treatment, both experimental and control animals were placed in stainless steel metabolic cages especially designed for urine collection. For Experimental Example 2, animals were placed in metabolic cages immediately after the last injection of indomethacin or meclofenamic acid. Urine was collected (in dark vials) from the animals during the following intervals: 2 to 7 hours and 7 to 16 hours after CCl4 or canola oil (controls) treatment. Urine samples from indomethacin-pretreated rats were collected from 2 to 7 hours and 7 to 16 hours after the injection of CCl4, whereas samples from meclofenamic-acid-pretreated rats were collected only from 2 to 7 hours after the injection. All urine samples were immediately frozen on dry ice and stored at −70° C.
# Urinary MDA was analyzed using high pressure liquid chromatography (HPLC). To 500 μl urine samples, 25 μl BHT and 750 μl 0.5% TBA solution were added, in this order. Samples were incubated at 60° C. for 60 minutes. After cooling, chloroform (750 μl) was added and mixed well. Following centrifugation, the aqueous layer was removed and used for HPLC analysis (column […]; mobile phase, 6:4(v/v) 0.04 M acetate buffer (pH 5.5)/MeOH; detection, 532 nm). The procedure was developed and performed by OXIS Research, Portland, Oreg.
# [4] = tested on: Male Fisher 344 rats; assay: Plasma TBARS after CCl4
# Procedure: as §2, §3
# Plasma sample preparation: Blood (5 ml) was drawn through single draw Vacutainer® needles (21 Gauge) into open Vacutainer® blood collection tubes containing heparin. The tubes were gently inverted 2-3 times for mixing and immediately placed on ice. Blood was centrifuged (2,000 rpm for 10 minutes at 4° C.) no more than 30 minutes after collection, and the plasma was collected, frozen on dry ice and stored at −70° C.
# Malondialdehyde (MDA) in plasma was measured using several different assays. In one assay in Experimental Example 1, free MDA and other thiobarbituric acid-reactive substances (TBARS) (MDA-protein adducts) were measured with the thiobarbituric acid (TBA assay) (Draper et al., 1993, Free Radic. Biol. Med. 15: 353-363). One ml of biological sample was combined with 2.0 ml of 1:1 TCA/TBA (30% trichloracetic acid and 0.67% thiobarbituric acid) in the presence of 200 mM butylated hydroxytoluene (BHT) for spectrophotometric readings (Porter et al., 1976, Biochim. Biophys. ACTA 441: 506-512). The incubation mixture was heated for 20 minutes in boiling water. The samples were centrifuged (2,000 rpm for 10 minutes at 4° C.), and the TBARS concentration was determined based on the absorbance at 532 nm measured with a Beckman DU-7 spectrophotometer at room temperature. Measurements were done at NIEHS, Research Triangle Park, N.C. in the case of Experimental Example 1.
structure (smiles),measurement,setting,value
"ClC(Cl)(Cl)Cl [CCl4, Carbon tetrachloride]",plasma iron concentrations and total iron binding capacity,[1],significantly increased only at the high dose at 16 hours
same,plasma nitrite/nitrate levels,[1],significantly increased only at the high dose at all three time points
same,"plasma MDA with LPO-586 reagents, 3rd derivative analysis",[2],significant increase was found only for the early time points
same,MDA (by HPLC with spectrophotometry),"[3]; CCl4 120 mg/kg i.p., 7 h",2.01 nmol/mg creatinine
same,MDA (by HPLC with spectrophotometry),"[3]; CCl4 120 mg/kg i.p., 16 h",1.54 nmol/mg creatinine
same,MDA (by HPLC with spectrophotometry),"[3]; CCl4 1200 mg/kg i.p., 7 h",2.61 nmol/mg creatinine
same,MDA (by HPLC with spectrophotometry),"[3]; CCl4 1200 mg/kg i.p., 16 h",2.16 nmol/mg creatinine
same,increase of urinary MDA,"[3]; higher dose of CCl4, urine collected 7 hours after treatment",3 fold
same,TBARS,"[4]; CCl4 120 mg/kg i.p., 2 h",4.1 µM
same,TBARS,"[4]; CCl4 120 mg/kg i.p., 7 h",10.4 µM
same,TBARS,"[4]; CCl4 120 mg/kg i.p., 16 h",13.0 µM
same,TBARS,"[4]; CCl4 1200 mg/kg i.p., 2 h",4.2 µM
same,TBARS,"[4]; CCl4 1200 mg/kg i.p., 7 h",9.4 µM
same,TBARS,"[4]; CCl4 1200 mg/kg i.p., 16 h",10.7 µM
